We go through nine compounds from PubChem BioAssay (NCI).

Test systems include NCI-H460 lung; HOP-92 NSCLC; SF-268 CNS; UO-31 renal; HL-60(TB) leukemia; PC-3 prostate; NCI/ADR-RES ovarian; RXF 393 renal; SNB-75 CNS; 786-0 renal.
What all share (assay): DTP human tumour cell line panel, 48 h

Values joined by “and” are separate entries in the source; they are usually repeats but may differ in a detail not shown here. Equal entries are not always repeated.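 Five compound concentrations were applied to cells in 96-well plates for 48 hours; endpoints were derived by simple linear interpolation of the resulting dose-response curve. GI50 is the concentration that inhibits growth by half. The concentration for full growth arrest is given as TGI.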

As to `CO[C@H]1CC(c2ccc[nH]2)=N[C@]12O[C@@H](C)C[C@@H]1CCCCCCCc3ccc([nH]3)[C@H]12`, the GI50 (usually the concentration that inhibits growth by half) in the assay on NCI-H460 lung was 0.813 µM; in the assay with HOP-92 NSCLC, 0.8 µM; with SF-268 CNS, 1.65 µM; with UO-31 renal, 0.932 µM; with HL-60(TB) leukemia, 1.24 µM; in the assay with PC-3 prostate it was 0.78 µM. In addition, the GI50 in the assay with NCI/ADR-RES ovarian was 1.1 µM; with RXF 393 renal, 0.807 µM; in the assay with SNB-75 CNS, 0.825 µM; with 786-0 renal, 1.25 µM. The TGI (as a rule, the concentration at which net growth stops) in the assay on NCI-H460 lung is 6.07 µM; in the assay with HOP-92 NSCLC, 4.81 µM; in the assay with SF-268 CNS it was above 32.2 µM; in the assay on UO-31 renal, 4.2 µM; with HL-60(TB) leukemia it was 4.97 µM; in the assay on PC-3 prostate, 20.7 µM. For the same compound, the TGI with NCI/ADR-RES ovarian came to 9.9 µM; in the assay on RXF 393 renal, 7.53 µM; in the assay with SNB-75 CNS, 2.79 µM; in the assay on 786-0 renal it was 6.53 µM.
On to `COc1cc(/C=C/C(=O)c2cccnc2Nc2ccc(F)cc2)cc(OC)c1OC`, for which the GI50 is 2.83 µM in the assay on NCI-H460 lung; 1.67 µM in the assay with HOP-92 NSCLC; 4.18 µM in the assay with SF-268 CNS; 5.62 µM in the assay with UO-31 renal; 2.4 µM with HL-60(TB) leukemia; 3.95 µM in the assay with PC-3 prostate. The GI50 with NCI/ADR-RES ovarian was 2.37 µM; in the assay with RXF 393 renal it was 2.81 µM; with SNB-75 CNS, 1.93 µM; in the assay on 786-0 renal, 3.9 µM. Besides, the TGI in the assay with NCI-H460 lung came out at 10.1 µM; in the assay with HOP-92 NSCLC, 5.65 µM; in the assay on SF-268 CNS, 17.6 µM; in the assay with UO-31 renal, 48 µM; in the assay on HL-60(TB) leukemia, 7.15 µM; in the assay with PC-3 prostate, 20 µM. The TGI is 8.14 µM with NCI/ADR-RES ovarian, 8.97 µM with RXF 393 renal, 8.51 µM with SNB-75 CNS and 13 µM in the assay on 786-0 renal.
As to `CCn1c2ccccc2c2cc(C(O)c3cccc4ncccc34)ccc21` (stereo not drawn), the GI50 with NCI-H460 lung is 0.0388 µM; with HOP-92 NSCLC, 0.0324 µM; with SF-268 CNS, 0.068 µM; in the assay on UO-31 renal, 0.285 µM; in the assay on HL-60(TB) leukemia, 0.0279 µM; in the assay on PC-3 prostate, 0.0413 µM. Besides, the GI50 in the assay on NCI/ADR-RES ovarian was 0.0396 µM; with RXF 393 renal, 0.0518 µM; with SNB-75 CNS it was 0.0254 µM; in the assay with 786-0 renal, 0.0559 µM. In addition, the TGI in the assay with NCI-H460 lung was 4.61 µM; with HOP-92 NSCLC, 4.98 µM; in the assay with SF-268 CNS it was above 73.6 µM; in the assay with UO-31 renal it was above 100 µM; with HL-60(TB) leukemia, 0.0787 µM; in the assay on PC-3 prostate it was above 85.7 µM. Besides, the TGI with NCI/ADR-RES ovarian was found to be 13.7 µM; with SNB-75 CNS, 34.1 µM; with 786-0 renal it was 7.29 µM.
Take `CC(C)CCN[C@@H]1CCc2cc(O)c(N3CC(=O)NS3(=O)=O)c(F)c2C1`: the GI50 was above 100 µM in the assay on NCI-H460 lung; 16.1 µM in the assay on HOP-92 NSCLC; above 100 µM with SF-268 CNS; 16.8 µM in the assay with UO-31 renal; above 100 µM with HL-60(TB) leukemia; above 100 µM in the assay on PC-3 prostate. For the same compound, the GI50 is above 100 µM with NCI/ADR-RES ovarian, 0.812 µM in the assay on RXF 393 renal, 1.17 µM in the assay on SNB-75 CNS and above 100 µM with 786-0 renal. Moreover, the TGI with NCI-H460 lung, in the assay with HOP-92 NSCLC, with SF-268 CNS, in the assay with UO-31 renal, in the assay with HL-60(TB) leukemia and in the assay with PC-3 prostate was above 100 µM throughout. Moreover, the TGI with NCI/ADR-RES ovarian is above 100 µM; in the assay with RXF 393 renal, 8.01 µM; in the assay on SNB-75 CNS, above 100 µM; in the assay on 786-0 renal it was above 100 µM.
With `CC(=O)Oc1ccc(C(c2ccc(OC(C)=O)cc2)c2ccccn2)cc1`, the GI50 with NCI-H460 lung was above 78.5 µM; with HOP-92 NSCLC, 0.861 µM; in the assay on SF-268 CNS it was above 87.9 µM; in the assay with UO-31 renal it was 21.4 µM; with HL-60(TB) leukemia, 25.4 µM; with PC-3 prostate, 16.3 µM. In addition, the GI50 was 0.908 µM in the assay on NCI/ADR-RES ovarian, 3.67 µM with RXF 393 renal and 24.8 µM in the assay with SNB-75 CNS. Further, the TGI with NCI-H460 lung is above 100 µM; with HOP-92 NSCLC, 34.3 µM and > 94.1 µM; with SF-268 CNS it was above 100 µM; in the assay with UO-31 renal, above 100 µM; in the assay on HL-60(TB) leukemia, 70 µM and 69.7 µM; with PC-3 prostate, above 100 µM. In addition, the TGI was above 100 µM in the assay on NCI/ADR-RES ovarian; 96.9 µM and > 95.7 µM in the assay with RXF 393 renal; above 100 µM in the assay on SNB-75 CNS; above 100 µM in the assay on 786-0 renal.
On to `OCCN1CCN(CC/C=C2\c3ccccc3Sc3ccc(Cl)cc32)CC1`, for which the GI50 was 1.89 µM and 2.19 µM with NCI-H460 lung; 1.02 µM and 2.44 µM with HOP-92 NSCLC; 2.58 µM and 4.5 µM in the assay on SF-268 CNS; 2.14 µM and 1.96 µM in the assay with UO-31 renal; 4.04 µM in the assay with HL-60(TB) leukemia; 2.75 µM and 2.96 µM in the assay on PC-3 prostate. In addition, the GI50 in the assay on NCI/ADR-RES ovarian is 10.3 µM and 8.06 µM; in the assay with RXF 393 renal it was 4.16 µM; in the assay with SNB-75 CNS, 1.41 µM and 2.7 µM; in the assay on 786-0 renal, 1.82 µM and 3.06 µM. Moreover, the TGI with NCI-H460 lung was 3.75 µM and 4.5 µM; in the assay on HOP-92 NSCLC it was 6.1 µM and 14.1 µM; in the assay on SF-268 CNS, 10.9 µM and 15.1 µM; in the assay on UO-31 renal, 7.66 µM and 6.24 µM; with HL-60(TB) leukemia it was 3.71 µM and 9.92 µM; in the assay with PC-3 prostate, 11.8 µM and 13.4 µM. The TGI in the assay on NCI/ADR-RES ovarian was 24.8 µM and 21.8 µM; in the assay with RXF 393 renal, 11.4 µM; in the assay on SNB-75 CNS it was 5.07 µM and 7.95 µM; in the assay on 786-0 renal, 3.65 µM and 8.58 µM.
With `COc1cc2c3c(n(CCCN=[N+]=[N-])c(=O)c2cc1OC)-c1ccc(N(C)C)cc1C3=O`, the GI50 in the assay with NCI-H460 lung, with HOP-92 NSCLC, in the assay on SF-268 CNS, with UO-31 renal, in the assay on HL-60(TB) leukemia and in the assay with PC-3 prostate was above 100 µM in each case. The GI50 in the assay on NCI/ADR-RES ovarian is above 100 µM; in the assay on RXF 393 renal, above 100 µM; in the assay with SNB-75 CNS, 55.9 µM; with 786-0 renal, above 100 µM. Also, the TGI in the assay with NCI-H460 lung, with HOP-92 NSCLC, in the assay with SF-268 CNS, in the assay with UO-31 renal, in the assay with HL-60(TB) leukemia and in the assay with PC-3 prostate was above 100 µM in each case. For the same compound, the TGI with NCI/ADR-RES ovarian, with RXF 393 renal, in the assay with SNB-75 CNS and in the assay with 786-0 renal was above 100 µM throughout.
As to `Oc1ccc(Cl)cc1CNc1nc2ccccc2[nH]1`, the GI50 in the assay on NCI-H460 lung is 12.5 µM; in the assay on HOP-92 NSCLC, 2.37 µM; with SF-268 CNS, 14.3 µM; in the assay with UO-31 renal, 4.73 µM; in the assay with HL-60(TB) leukemia it was 19.8 µM; with PC-3 prostate, 9.75 µM. Also, the GI50 in the assay with NCI/ADR-RES ovarian is 11.5 µM; in the assay on RXF 393 renal it was 10.3 µM; in the assay with SNB-75 CNS it was 4.58 µM; with 786-0 renal it was 14.3 µM. Besides, the TGI was 26.3 µM with NCI-H460 lung; 10.4 µM with HOP-92 NSCLC; 30.2 µM in the assay with SF-268 CNS; 19.1 µM with UO-31 renal; above 100 µM in the assay on HL-60(TB) leukemia; 23.3 µM in the assay with PC-3 prostate. In addition, the TGI with NCI/ADR-RES ovarian came out at 37.8 µM; in the assay on RXF 393 renal, 23.9 µM; with SNB-75 CNS it was 21.6 µM; in the assay on 786-0 renal, 31.4 µM.
Take `C=C1c2c(Cl)ccc(O)c2C(O)=C2C(=O)[C@]3(O)C(O)=C(C(N)=O)C(=O)[C@@H](N(C)C)[C@@H]3[C@@H](O)[C@H]12`: the GI50 was 1.17 µM in the assay on NCI-H460 lung; 0.669 µM in the assay with HOP-92 NSCLC; 1.41 µM in the assay on SF-268 CNS; 1.19 µM with UO-31 renal; 1.22 µM in the assay with HL-60(TB) leukemia; 1.34 µM in the assay with PC-3 prostate. Also, the GI50 is 2.43 µM in the assay with NCI/ADR-RES ovarian, 0.534 µM in the assay with RXF 393 renal, 0.845 µM with SNB-75 CNS and 1.17 µM in the assay on 786-0 renal. Also, the TGI in the assay with NCI-H460 lung came to 7.54 µM; in the assay with HOP-92 NSCLC, 2.16 µM; in the assay with SF-268 CNS it was 7.16 µM; with UO-31 renal it was 6.22 µM; with HL-60(TB) leukemia it was 3.57 µM; in the assay with PC-3 prostate, 31.4 µM. Besides, the TGI with NCI/ADR-RES ovarian was above 50 µM; in the assay on RXF 393 renal, 2.82 µM; with SNB-75 CNS, 3.61 µM; with 786-0 renal, 5.22 µM.
